Results as given in patent publication US20170260183A1, “BICYCLIC COMPOUNDS AS PEST CONTROL AGENTS” (BAYER CROPSCIENCE AKTIENGESELLSCHAFT, priority 2014, published 2017).
Like-named read-outs stand apart in the source and are kept apart here.

Tests used:
[1] = logP determination by HPLC on reversed-phase columns (OECD Guideline 117); type: physicochemical; conditions: reversed-phase (C18) HPLC column
Method: The logP values were determined in accordance with OECD Guideline 117 (EC Directive 92/69/EEC) by HPLC (high-performance liquid chromatography) using reversed-phase (RP) columns (C18), by the following methods: [a] The LC-MS determination in the acidic range is carried out at pH 2.7 with 0.1% aqueous formic acid and acetonitrile (contains 0.1% formic acid) as eluents; linear gradient from 10% acetonitrile to 95% acetonitrile. [b] LC-MS determination in the neutral range is effected at pH 7.8 with 0.001 molar aqueous ammonium hydrogencarbonate solution and acetonitrile as eluents; linear gradient from 10% acetonitrile to 95% acetonitrile. Calibration is effected using unbranched alkan-2-ones (having 3 to 16 carbon atoms) with known logP values (logP values determined on the basis of the retention times by linear interpolation between two successive alkanone s).

Myzus persicae = Myzus persicae - spray test; type: in vivo; conditions: foliar, 144 h, application rate 500 g/ha, after 6 days, sprayed Chinese cabbage leaf discs, 100% = all aphids killed, read-out: efficacy in %
Method: Myzus persicae—Spray Test • Solvent: 78 parts by weight of acetone • 1.5 parts by weight of dimethylformamide • Emulsifier: alkylaryl polyglycol ether […] To produce further test concentrations, the formulation is diluted with emulsifier-containing water. Discs of Chinese cabbage leaves (Brassica pekinensis) infested by all stages of the green peach aphid (Myzus persicae) are sprayed with an active ingredient formulation of the desired concentration. After 6 days, the efficacy in % is determined. 100% means that all the aphids have been killed and 0% means that none of the aphids have been killed.

Aphis gossypii = Aphis gossypii - spray test; type: in vivo; conditions: application rate 4 ppm; after 6 days; sprayed cotton plants; 100% = all aphids killed
Method: Aphis gossypii—Spray Test • Solvent: 7 parts by weight of dimethylformamide • Emulsifier: alkylaryl polyglycol ether
To produce a suitable active ingredient formulation, 1 part by weight of active ingredient is dissolved with the specified parts by weight of solvent and made up with water containing an emulsifier concentration of 1000 ppm until the desired concentration is attained. To produce further test concentrations, the formulation is diluted with emulsifier-containing water. If the addition of ammonium salts or/and penetrants is required, these are each added in a concentration of 1000 ppm to the formulation solution.
Cotton plants (Gossypium hirsutum) heavily infested by the cotton aphid (Aphis gossypii) are sprayed with an active ingredient formulation of the desired concentration.
After 6 days, the kill in % is determined. 100% means that all the aphids have been killed and 0% means that none of the aphids have been killed.

[2] = acidic range, pH 2.7, 0.1% aqueous formic acid and acetonitrile, read-out: logP[a]
[3] = neutral range, pH 7.8, 0.001 molar aqueous ammonium hydrogencarbonate and acetonitrile, read-out: logP[b]

| SMILES | chromatographic logP [1, 2] | chromatographic logP [1, 3] | pest or weed control at 500 g/ha (Myzus persicae) [%] | efficacy (kill in %) (Aphis gossypii) [%] |
| --- | --- | --- | --- | --- |
| CSCCC(=O)Nc1cnc2nn(-c3cccnc3)cc2c1 [Example 6, 3-methylsulphanyl-N-[2-(3-pyridyl)pyrazolo [3,4-b]pyridin-5-yl]propanamide] | 1.15 | 1.21 | 100 | – |
| CC(F)(F)CC(=O)Nc1cnc2nn(-c3cccnc3)cc2c1 [Example 7, 3,3-DIFLUORO-N-[2-(3-PYRIDYL)PYRAZOLO[3,4-B]PYRIDIN-5-YL]BUTANAMIDE] | 1.22 | 1.22 | 90 | – |
| Cc1cc(F)c(-c2cnc3nn(-c4cccnc4)cc3c2)cc1[S+]([O-])CC(F)(F)F (centres unmarked) [Example 3, 5-[2-fluoro-4-methyl-5-(2,2,2-trifluoroethylsulphinyl)phenyl]-2-(3-pyridyl)pyrazolo [3,4-b]pyridine] | 2.14 | 2.11 | 90 | – |
| CSCCC(=O)N(C)c1cnc2nn(-c3cccnc3)cc2c1 [Example 10, N-[2-(3-pyridyl)pyrazolo[3,4-b]pyridin-5-yl]-N-methyl-3-methylsulphanylpropanamide] | 1.16 | 1.2 | 90 | – |

Second part, led by results:

| chromatographic logP [1, 2] | chromatographic logP [1, 3] | SMILES | pest or weed control at 500 g/ha (Myzus persicae) [%] | efficacy (kill in %) (Aphis gossypii) [%] |
| --- | --- | --- | --- | --- |
| 1 | 1.15 | Cn1cc(-c2cnc3nn(-c4cccnc4)cc3c2)cn1 [Example 8, 5-(1-methylpyrazol-4-yl)-2-(3-pyridyl)pyrazolo[3,4-b]pyridine] | 90 | – |
| – | 0.54 | CC(=O)Nc1cnc2nn(-c3cccnc3)cc2c1 [Example 1, 5-N-Acetylamino-2-(3-pyridyl)-pyrazolo[3,4-b]pyridine] | – | 95 |
| 2.07 | 2.03 | Cc1ccc(-c2cnc3nn(-c4cccnc4)cc3c2)cc1[S+]([O-])CC(F)(F)F (centres unmarked) [Example 5, 5-[4-METHYL-3-(2,2,2-TRIFLUOROETHYLSULPHINYL)PHENYL]-2-(3-PYRIDYL)PYRAZOLO [3,4-B]PYRIDINE] | 100 | – |
| 3.14 | 3.1 | Cc1ccc(-c2cnc3nn(-c4cccnc4)cc3c2)cc1SCC(F)(F)F [Example 4, 5-[4-methyl-3-(2,2,2-trifluoroethylsulphanyl)phenyl]-2-(3-pyridyl)pyrazolo[3,4-b]pyridine] | 100 | – |
| 3.44 | 3.22 | Cc1cc(F)c(-c2cnc3nn(-c4cccnc4)cc3c2)cc1SCC(F)(F)F [Example 2, 5-[2-Fluoro-4-methyl-5-(2,2,2-trifluoroethylsulphanyl)phenyl]-2-(3-pyridyl)pyrazolo[3,4-b]pyridine] | 90 | – |
